Experimental findings from paper PMC10983001, “Development of Cytotoxic GW7604-Zeise’s Salt Conjugates as Multitarget Compounds with Selectivity for Estrogen Receptor- Positive Tumor Cells” (Journal of Medicinal Chemistry, 2024) are described below.

Assay type in all cases: cell-based, human
Data set [1] relates to MCF-7 cells. Briefly: MTT assay of metabolic activity, MCF-7. Particulars: 72 h, MTT; read-out: IC50 MCF-7. The protocol:
The GW7604-Alk-PtCl3 complexes (with exclusion of GW7604-Prop-PtCl3) were investigated for cytotoxic effects in SKBr3 (ER-negative, COX-2-positive, Figure 6), MCF-7 (ERα-positive, COX-negative, Figure 6), and noncancerous TSA-201 (human embryonal kidney) cells at concentrations of 10–30 μM using an established MTT (3-(4,5-dimethylthiazol-2-yl)-2,5-diphenyltetrazolium bromide) assay.[60],[69]
After incubation for 72 h, the amounts of surviving, metabolically active cells were quantified based on their ability to transform the water-soluble yellow dye MTT to a purple formazan, which can be analyzed by UV–vis spectroscopy.
The exponentially growing cells were seeded at a density of 1750 (MCF-7), 2000 (SKBr3), and 1250 (TSA-201) cells/well into clear flat-bottom 96-well plates in triplicate. Following 24 h of incubation at 37 °C in a humidified atmosphere (5% CO2/95% air), the compounds [freshly prepared stock solutions in DMF, diluted with DMEM to the desired concentration (final DMF concentration of 0.1% (v/v))] were added to reach the indicated concentrations. After another 72 h of incubation, the cellular metabolic activity was measured employing an MTT assay. By adding predissolved MTT reagent in PBS at a final concentration of 0.5 mg/mL, the metabolic activity can be determined via an enzymatic conversion to a purple formazan salt. After 3 h, the medium was aspirated, and 200 μL of DMSO was added to dissolve the formed formazan crystals. The absorbance was measured at 570 and 690 nm (turbidity assessment) using an EnSpire plate reader (PerkinElmer, Waltham, MA, USA). Solvent-treated cells without a compound served as the positive control. Metabolic activity was calculated by the following equation [drawing 1]
For orientation: Tetrazolium assays rely on reduction of a dye to a coloured formazan, in cell work by metabolically active cells.

The subject of data set [2] is MCF-7 cells. Briefly: Hormonal (agonistic) activity: growth stimulation. Particulars: MCF-7, low concentrations (<100 nM), data not shown. An excerpt:
However, both agonistic properties and SERD effects can be excluded.

The subject of data set [3] is MCF-7 cells. Nature of the data set: Cellular uptake (platinum by HR-CS-AAS), MCF-7. The following applies: MCF-7, 20 μM. Here is the method: In order to reach the DNA, the complexes must first pass through the cell membrane and penetrate into the nuclei. Therefore, the cellular uptake kinetics of GW7604-Alk-PtCl3 complexes were studied using the example of GW7604-Pent-PtCl3. This complex and Cisplatin, respectively, were incubated at a concentration of 20 μM with MCF-7 or SKBr3 cells. After various time points [i.e., 0 (3 min), 0.5, 1, 2, 4, and 8 h], cell pellets were prepared, and the platinum content was quantified by high-resolution continuum source atomic absorption spectrometry (HR-CS-AAS).[52]
After thawing of the cell/nuclei pellets, they were resuspended in ultrapure water (Siemens LaboStar, Günzburg, Germany; 300 μL) and lyzed with a sonotrode (Bandelin Sonoplus, Berlin, Germany; parameters 20 s, 9 cycles, 80% power). Graphite furnace (GF) AAS was used to quantify the lysates concerning their content of platinum (λ = 265.9450 nm). For this purpose, a contrAA 700 High-Resolution-Continous Source AAS (Analytik Jena, Jena, Germany) was employed, while atomization took place by electrothermal heating of graphite tubes with an inserted platform (Analytik Jena, Jena, Germany). A time–temperature program reported in the literature[25] was followed with minor adjustments. The liquid samples kept in 0.5 mL polystyrene vials (Gesellschaft für Analysentechnik, Salzwedel, Germany) were injected directly into the pyrolytically coated tubes using an MPE 60 autosampler (Analytik Jena, Jena, Germany). Throughout the measurements, argon (Alphagaz 1, 99.999%, Air Liquide, Düsseldorf, Germany) served as the purge and protective gas. The spectrometer was monitored with the ASpect CS software, version 2.3.1.0 (Analytik Jena, Jena, Germany). For all runs, the mean integrated absorbance was determined after three injections of each standard or sample. Calibration was performed by an appropriate dilution of a solution of Cisplatin (Sigma-Aldrich, Taufkirchen, Germany) obtaining five standards (2–10 μg/L, R^2 ≥ 0.982). Each cell/nuclei lysate was quantified concerning its protein content following the method of Bradford[71] in order to express the uptake as the amount of compound (pmol) in the lysate relative to its protein mass (mg). Therefore, solutions of Albumin fraction V (Carl Roth, Karlsruhe, Germany) diluted with ultrapure water were adduced for the calibration (six standards, 50–300 μg/mL, R^2 ≥ 0.996). A volume of 20 μL of the Albumin standards or the lysates was added to a 96-well plate (Sarstedt, Nürmbrecht, Germany) and supplemented with 200 μL of Bradford’s reagent (Roti-Nanoquant, Carl Roth, Karlsruhe, Germany; diluted 5-fold with ultrapure water). All standards and lysates were measured in duplicate. After incubating for 5 min at rt, the absorbance (λ = 595 nm) was read on a microplate reader (Tecan Safire 2, Männedorf, Switzerland). The cellular/nuclear uptake (pmol complex/mg protein) is given as the mean ± SD of 2 independent experiments.
For cellular uptake studies, 1.0 × 10^6 of MCF-7 and SKBr3 cells in their exponential growing phase were seeded into 25 cm^2 cell culture flasks and incubated for 24 h under a humidified atmosphere (5% CO2/95% air) at 37 °C. Stock solutions of the platinum complexes (GW7604-Pent-PtCl3, Cisplatin) in DMF were freshly prepared and diluted with complete DMEM containing 10% FCS to the desired concentration [final DMF concentration of 0.1% (v/v), final complex concentration of 20 μM]. The medium in the cell culture flasks was replaced with 3 mL of fresh cell culture medium containing the compounds, and the flasks were incubated under a humidified atmosphere at 37 °C for 3 min, 0.5, 1, 2, 4, and 8 h. Cell pellets were prepared by removing the medium, washing two times with phosphate-buffered saline (PBS), and detaching the cells with Accutase (GE Healthcare, BioSciences, Chicago, IL, USA). Subsequently, cells were pelleted by centrifugation (4 °C, 380g, 3 min). […]

With `CCC(=C(c1ccc(O)cc1)c1ccc(C=CC(=O)OCCC[CH]2[CH2][Pt-]2([Cl])([Cl])[Cl])cc1)c1ccccc1.[K+]` (mixture of isomers) [GW7604-Pent-PtCl3, Potassium trichlorido[η^2-(pent-4-en-1-yl (E)-3-(4-((E/Z)-1-(4-hydroxyphenyl)-2-phenylbut-1-en-1-yl)phenyl)acrylate)]platinate(II)], the half-inhibitory concentration (IC50) in the data set on MCF-7 cells [1] is 19.6 µM. Also, in the data set on MCF-7 cells [2], the “agonistic effect: stimulation of growth” value is “neither stimulated the growth”. The intracellular platinum amount in the data set with MCF-7 cells [3] (0.5 h) was determined as 130 pmol/mg; in the data set on MCF-7 cells [3] (1 h) it was 265 pmol/mg; in the data set with MCF-7 cells [3] (2 h), 371 pmol/mg; in the data set on MCF-7 cells [3] (4 h), 659 pmol/mg; in the data set with MCF-7 cells [3] (8 h), 818 pmol/mg.

What is called IC50 is the concentration that inhibits the measured activity by half.
